The source of these data is patent US9845297B2, “Antimicrobial compounds and methods of making and using the same” (Melinta Therapeutics, Inc., priority 2009, dated 2017).

A value given as a limit tells only on which side of the number the result lay.

For this experiment, the system named is Eschericia coli strain ATCC25922. Kind of experiment: standard microdilution assay to determine minimum inhibitory concentrations (MICs). Type of experiment: cell-based. The settings on record: Escherichia coli, ATCC25922, Eschericia coli strain ATCC25922, standard microdilution assay; read-out: E. coli ATCC25922 MIC. The procedure: Minimum inhibitory concentrations (MICs) are determined by the microdilution method, typically in a final volume of 100 microliters, according to protocols outlined by The Clinical and Laboratory Standards Institute [CLSI; formerly the National Committee for Clinical Laboratory Standards (NCCLS)]. See CLSI: Methods for dilution antimicrobial susceptibility tests for bacteria that grow aerobically; approved standard-fifth edition. Wayne, Pa.: NCCLS; 2000. The assays can be also be performed in microtiter trays according to conventional methodologies as published by the CLSI. See CLSI. Methods for Dilution Antimicrobial Susceptibility Tests for Bacteria That Grow Aerobically; Approved Standard-Seventh Edition. CLSI Document M7-A7 [ISBN 1-56238-587-9] CLSI, 940 West Valley Road, Suite 1400, Wayne Pa. 19087-1898 USA, 2006).
The compounds of the present invention were tested for antimicrobial activity. The compounds were run against Eschericia coli strain ATCC25922 using a standard microdilution assay to determine minimum inhibitory concentrations (MICs). […] A “N/A” means that data is unavailable. It will be recognized by one skilled in the art that the compounds can be assessed against other bacterial organisms and that the presentation of data for activity against Eschericia coli is illustrative and in no way is intended to limit the scope of the present invention. The compounds of the present invention can be assayed against a range of other microorganisms depending upon the performance activity desired to be gathered. Furthermore, the “+”, “−”, and “N/A” representation and the selection of a cutoff value of 16 micrograms/ml is also illustrative and in no way is intended to limit the scope of the present invention.
(Broth dilution looks for growth in wells or tubes with falling amounts of substance.)
For the molecule `N=C(N)NCCC[C@@H](CCCn1ccc(NC(=O)Nc2ccc(F)c(F)c2)nc1=O)NCCCN` [Compound 160], the MIC is over 16 µg/mL. Turning to `NCC[C@H](N)C(=O)N1CCN(C2C=NC(NC(N)=O)=NC2=O)CC1` (stereo partly drawn) [Compound 161], the MIC is over 16 µg/mL.

As for `NC[C@@H](N)C(=O)Nc1ccc(-c2c[nH]c(NC(N)=O)cc2=O)cc1` [Compound 162], the MIC is over 16 µg/mL. In the case of `Cn1ncc(C(=O)Nc2ccn(CCC[C@H](CCCNC(=N)N)NCCCN)c(=O)n2)c1Cl` [Compound 163], the MIC was under 16 µg/mL. `N=C(N)NCCC[C@@H](CCCn1ccc(NC(=O)Nc2cc(F)c(F)cc2F)nc1=O)NCCCN` [Compound 164]: the MIC was over 16 µg/mL. With `N=C(N)NCCC[C@@H](CCCn1ccc(NC(=O)Nc2ccc(C(F)(F)F)cc2)nc1=O)NCCCN` [Compound 165], the MIC is over 16 µg/mL.

Take `Cc1nc(-c2cccc(NC(=O)Nc3ccn(CCC[C@H](CCCNC(=N)N)NCCCN)c(=O)n3)c2)cs1` [Compound 166]: the MIC is over 16 µg/mL. As to `Cc1nc(-c2cnccn2)sc1C(=O)Nc1ccn(CCC[C@H](CCCNC(=N)N)NCCCN)c(=O)n1` [Compound 167], the MIC is over 16 µg/mL. With `N=C(N)NCCCN(CCCN)Cc1ccc(-c2c[nH]c(NC(N)=O)nc2=O)cc1` [Compound 168] the figure was under 16 µg/mL.

As for `N=C(N)NCCN(CCCN)Cc1ccc(-c2c[nH]c(NC(N)=O)nc2=O)cc1` [Compound 170], the MIC is over 16 µg/mL.

In the case of `NCCCN(CCCN)Cc1ccc(-c2c[nH]c(NC(=O)Nc3ccc(F)c(F)c3)nc2=O)cc1` [Compound 171], the MIC is over 16 µg/mL.

As for `NCCCN(CCCN)Cc1ccc(-c2c[nH]c(NC(=O)Nc3ccc(C(F)(F)F)cc3)nc2=O)cc1` [Compound 172], the MIC is under 16 µg/mL. As for `NCCCN(CCCN)Cc1ccc(-c2c[nH]c(NC(=O)c3ccc(Cl)cc3)nc2=O)cc1` [Compound 173], the MIC is over 16 µg/mL.

As to `Cn1ncc(C(=O)Nc2nc(=O)c(-c3ccc(CN(CCCN)CCCN)cc3)c[nH]2)c1Cl` [Compound 174], the MIC was over 16 µg/mL. As to `CSc1ccc(C(=O)Nc2ccn(CCCC(CCCNC(=N)N)NCCCN)c(=O)n2)cc1` (stereo not drawn) [Compound 175], the MIC was over 16 µg/mL. As for `CN(C)c1ccc(C(=O)Nc2ccn(CCCC(CCCNC(=N)N)NCCCN)c(=O)n2)cc1` (stereo not drawn) [Compound 176], the minimum inhibitory concentration (MIC) is under 16 µg/mL. Turning to `COc1ccc(C(=O)Nc2ccn(CCCC(CCCNC(=N)N)NCCCN)c(=O)n2)cc1` (stereo not drawn) [Compound 177], the MIC is over 16 µg/mL. Turning to `NCCCN(CCCN)Cc1ccc(-c2c[nH]c(NC(=O)Nc3cc(F)c(F)cc3F)nc2=O)cc1` [Compound 178], the MIC is over 16 µg/mL. For `CN1CCN(c2ccc(NC(=O)Nc3ccn(CCCC(CCCNC(=N)N)NCCCN)c(=O)n3)cc2)CC1` (stereo not drawn) [Compound 185], the MIC was under 16 µg/mL. Consider `N=C(N)NCCCC(CCCn1ccc(NC(=O)Nc2ccc(N3CCCCC3)cc2)nc1=O)NCCCN` (stereo not drawn) [Compound 186], for which the MIC is over 16 µg/mL. For `N=C(N)NCCCC(CCCn1ccc(NC(=O)c2ccc(N3CCOCC3)nc2)nc1=O)NCCCN` (stereo not drawn) [Compound 187], the minimal inhibitory concentration (MIC) is over 16 µg/mL.

`CN(C)c1ccc(NC(=O)Nc2nc(=O)c(-c3ccc(CN(CCCN)CCCN)cc3)c[nH]2)cc1` [Compound 188]: the MIC was over 16 µg/mL. Consider `N=C(N)NCCCC(CCCn1ccc(NC(=O)c2ccc(N3CCOCC3)cc2)nc1=O)NCCCN` (stereo not drawn) [Compound 189], for which the MIC is over 16 µg/mL. On to `CN1CCN(c2ccc(C(=O)Nc3ccn(CCC[C@H](CCCNC(=N)N)NCCCN)c(=O)n3)cc2)CC1` [Compound 190], for which the MIC was under 16 µg/mL.

`CN1CCN(c2ccc(NC(=O)Nc3nc(=O)c(-c4ccc(CN(CCCN)CCCN)cc4)c[nH]3)cc2)CC1` [Compound 191]: the MIC is under 16 µg/mL. With `CC(N)(CO)C(=O)Nc1ccc(C(=O)Nc2ccn(CCC[C@H](CCCNC(=N)N)NCCCN)c(=O)n2)cc1` (stereo partly drawn) [Compound 199], the MIC is under 16 µg/mL. As to `NCCCN(CCCN)Cc1ccc(-c2c[nH]c(NC(=O)Cc3ccc(C(F)(F)F)cc3)nc2=O)cc1` [Compound 205], the MIC was over 16 µg/mL.

Turning to `CN(C)CCN1CCN(c2ccc(NC(=O)Nc3ccn(CCCC(CCCNC(=N)N)NCCCN)c(=O)n3)cc2)CC1` (stereo not drawn) [Compound 208], the MIC is under 16 µg/mL. As for `CN1CCN(C2CCN(c3ccc(NC(=O)Nc4nc(=O)c(-c5ccc(CN(CCCN)CCCN)cc5)c[nH]4)cc3)CC2)CC1` [Compound 209], the MIC was under 16 µg/mL. For the molecule `CN(C)CCN1CCN(c2ccc(NC(=O)Nc3nc(=O)c(-c4ccc(CN(CCCN)CCCN)cc4)c[nH]3)cc2)CC1` [Compound 210], the MIC is under 16 µg/mL. Consider `CN(C)C(=O)CN1CCN(c2ccc(NC(=O)Nc3nc(=O)c(-c4ccc(CN(CCCN)CCCN)cc4)c[nH]3)cc2)CC1` [Compound 211], for which the MIC is over 16 µg/mL. Regarding `CN(C)CCN1CCN(c2ccc(C(=O)Nc3ccn(CCC[C@H](CCCNC(=N)N)NCCCN)c(=O)n3)cc2)CC1` [Compound 213], the MIC is over 16 µg/mL. As to `CN(C)C(=O)CN1CCN(c2ccc(NC(=O)Nc3ccn(CCC[C@H](CCCNC(=N)N)NCCCN)c(=O)n3)cc2)CC1` [Compound 214], the MIC was over 16 µg/mL. The value for `CN1CCN(c2ccc(NC(=O)Nc3ccn(-c4ccc(CN(CCCN)CCCNC(=N)N)cc4)c(=O)n3)cc2)CC1` [Compound 222] was under 16 µg/mL.

Take `N=C(N)NCCCN(CCCN)Cc1ccc(-n2ccc(NC(=O)Nc3ccc(F)c(F)c3)nc2=O)cc1` [Compound 223]: the minimal inhibitory concentration (MIC) is over 16 µg/mL. Consider `NCc1ccc(-c2c[nH]c(NC(=O)Nc3cc(F)c(F)cc3F)nc2=O)cc1` [Compound 238], for which the MIC is over 16 µg/mL. In the case of `NCCCNCc1ccc(-c2c[nH]c(NC(=O)Nc3cc(F)c(F)cc3F)nc2=O)cc1` [Compound 239], the MIC was over 16 µg/mL.

For the molecule `NCCCNCc1ccc(-c2c[nH]c(NC(=O)Nc3ccccc3OC(F)(F)F)nc2=O)cc1Cl` [Compound 242], the minimum inhibitory concentration (MIC) was under 16 µg/mL.

In the case of `NCCCNCc1ccc(-c2c[nH]c(NC(=O)Nc3cccc(Cl)c3Cl)nc2=O)cc1Cl` [Compound 243], the MIC is under 16 µg/mL. Turning to `NCCCNCc1ccc(-c2c[nH]c(NC(=O)Nc3ccc(OC(F)F)cc3)nc2=O)cc1Cl` [Compound 244], the MIC was over 16 µg/mL. Take `NCCCNCc1ccc(-c2c[nH]c(NC(=O)Nc3ccccc3OC(F)(F)F)nc2=O)cc1F` [Compound 246]: the MIC was under 16 µg/mL. In the case of `NCc1ccc(-c2c[nH]c(NC(=O)Nc3ccccc3OC(F)(F)F)nc2=O)cc1F` [Compound 247], the MIC is over 16 µg/mL. Regarding `NCc1ccc(-c2c[nH]c(NC(=O)Nc3ccccc3OC(F)(F)F)nc2=O)cc1C(F)(F)F` [Compound 248], the MIC is over 16 µg/mL.

Regarding `NCCCNCc1ccc(-c2c[nH]c(NC(=O)Nc3ccc(OC(F)(F)F)cc3)nc2=O)cc1F` [Compound 249], the MIC was under 16 µg/mL. With `NC1CCN(Cc2ccc(-c3c[nH]c(NC(=O)Nc4ccccc4OC(F)(F)F)nc3=O)cc2)CC1` [Compound 251] the figure was under 16 µg/mL.

Take `NCCCNCc1ccc(-c2c[nH]c(NC(=O)Nc3cccc(Cl)c3Cl)nc2=O)cc1F` [Compound 252]: the MIC was under 16 µg/mL.

Turning to `NCCCNCc1ccc(-c2c[nH]c(NC(=O)NCc3ccc(F)cc3)nc2=O)cc1F` [Compound 255], the MIC was over 16 µg/mL. `NCCCN(CCCN)Cc1ccc(-c2c[nH]c(NC(=O)Nc3ccccc3OC(F)(F)F)nc2=O)cc1` [Compound 256]: the MIC is under 16 µg/mL. Consider `O=C(NCc1ccc(F)cc1)Nc1nc(=O)c(-c2ccc(CNCCCF)c(Cl)c2)c[nH]1` [Compound 257], for which the MIC was over 16 µg/mL. For the molecule `NCCCNCc1ccc(-c2c[nH]c(NC(=O)Nc3cccc(Cl)c3Cl)nc2=O)cc1C(F)(F)F` [Compound 259], the MIC is under 16 µg/mL. Regarding `CSCCNCc1ccc(-c2c[nH]c(NC(=O)Nc3ccccc3OC(F)(F)F)nc2=O)cc1Cl` [Compound 260], the MIC was over 16 µg/mL. Take `NCCCNCc1ccc(-c2c[nH]c(NC(=O)Nc3cc(F)c(F)cc3F)nc2=O)cc1F` [Compound 265]: the MIC is over 16 µg/mL. In the case of `NCCCNCc1ccc(-c2c[nH]c(NC(=O)Nc3cc(F)c(F)cc3F)nc2=O)cc1C(F)(F)F` [Compound 266], the MIC was under 16 µg/mL.

Consider `CSCCNCc1ccc(-c2c[nH]c(NC(=O)NCc3ccc(F)cc3)nc2=O)cc1Cl` [Compound 267], for which the MIC was over 16 µg/mL. The value for `CSCCNCc1ccc(-c2c[nH]c(NC(=O)Nc3cc(F)c(F)cc3F)nc2=O)cc1Cl` [Compound 268] was over 16 µg/mL; that for `NCCCNCc1ccc(-c2c[nH]c(NC(=O)Nc3ccccc3OC(F)(F)F)nc2=O)cc1C(F)(F)F` [Compound 269] was under 16 µg/mL.

For the molecule `NCCCNCc1ccc(-c2c[nH]c(NC(=O)Nc3ccc(OC(F)F)cc3)nc2=O)cc1C(F)(F)F` [Compound 270], the minimal inhibitory concentration (MIC) was over 16 µg/mL. As to `O=C(Nc1nc(=O)c(-c2ccc(CNCCCF)c(Cl)c2)c[nH]1)Nc1ccccc1OC(F)(F)F` [Compound 271], the MIC was over 16 µg/mL. Turning to `NCCCNCc1ccc(-c2c[nH]c(NC(=O)Nc3ccc(C(F)(F)F)cc3)nc2=O)cc1C(F)(F)F` [Compound 273], the MIC was over 16 µg/mL. On to `O=C(Nc1nc(=O)c(-c2ccc(CNCC3CC3)cc2)c[nH]1)Nc1ccccc1OC(F)(F)F` [Compound 274], for which the MIC is over 16 µg/mL.

Usually MIC stands for the lowest concentration found to suppress growth.
